Legend:
[1] = biological target: T1, HIV-1 reverse transcriptase (HIV RT) (HIV-1 M:B_HXB2R, UniProt P04585); assay: primer extension, […] min; assay type: biochemical; conditions: 80 mM KCl, 6 mM MgCl2, 100 µM dNTPs, pH 8; G8 prepared in K+; concentration given as cdiGMP monomers; octaplex only, M/D shows no inhibition
T1 construct: gene gag-pol; purchased from Worthington; mature RT cut from Gag-Pol polyprotein; with p51 RT

[2] = biological target: T1, HIV-1 reverse transcriptase (HIV RT); assay: DRaCALA direct binding, protein titration; conditions: labelled compound (32P), 500 nM; K+ buffer pH 7.9, room temperature; concentration given as cdiGMP monomers; octaplex only, cdiGMP M/D does not bind; primer-template site

## cdiGMP G8
[1]
  IC50: 28 ± 7 µM
[2]
  Kd: 0.7 ± 0.1 µM

Reference: article PMC3538687, “Detection of Cyclic Diguanylate G-Octaplex Assembly and Interaction with Proteins” (PLoS ONE, 2013)
